This passage reports T/C results from PubChem BioAssay AID200 (DTP/NCI, 2004).

The experiment relates to B6C3F1 mice, B16 melanoma ip, median survival T/C. Description: NCI In Vivo Anticancer Drug Screen. Data for tumor model B16 Melanoma (intraperitoneal) in B6C3F1 mice. The note with it: endpoint: median survival time, higher = longer survival. As for the experimental part: The antitumor activity of compounds was measured in mice bearing transplantable tumors. Survival or tumor size were measured and the results are expressed as the measurement made in the treated group (T) divided by the measurement made in the vehicle treated control group (C). The tumor model used in this assay is B16 Melanoma (intraperitoneal) in B6C3F1 mice

The mark [1] stands for this setting: dose: 12.5 mg/kg/injection, schedule: Q01DX009 (ip), vehicle: saline with Tween-80.
[2] abbreviates: dose: 25.0 mg/kg/injection, schedule: Q01DX009 (ip), vehicle: saline with Tween-80.
The mark [3] stands for this setting: dose: 50.0 mg/kg/injection, schedule: Q01DX009 (ip), vehicle: saline with Tween-80.
Where [4] appears, read: dose: 100.0 mg/kg/injection, schedule: Q01DX009 (ip), vehicle: saline with Tween-80.
The mark [5] stands for this setting: dose: 200.0 mg/kg/injection, schedule: Q01DX009 (ip), vehicle: saline with Tween-80.
Where [6] appears, read: dose: 400.0 mg/kg/injection, schedule: Q01DX009 (ip), vehicle: saline with Tween-80.
[7] abbreviates: dose: 6.25 mg/kg/injection, schedule: Q01DX009 (ip), vehicle: Klucel (hydroxypropylcellulose) (HPC).
[8] abbreviates: dose: 12.5 mg/kg/injection, schedule: Q01DX009 (ip), vehicle: Klucel (hydroxypropylcellulose) (HPC).
Where [9] appears, read: dose: 200.0 mg/kg/injection, schedule: Q01DX009 (ip), vehicle: saline.
[10] abbreviates: dose: 25.0 mg/kg/injection, schedule: Q01DX009 (ip), vehicle: Klucel (hydroxypropylcellulose) (HPC).
[11] abbreviates: dose: 50.0 mg/kg/injection, schedule: Q01DX009 (ip), vehicle: Klucel (hydroxypropylcellulose) (HPC).
The mark [12] stands for this setting: dose: 2.5 mg/kg/injection, schedule: Q01DX009 (ip), vehicle: saline with Tween-80.
Setting [13] is: dose: 5.0 mg/kg/injection, schedule: Q01DX009 (ip), vehicle: saline with Tween-80.
[14] abbreviates: dose: 20.0 mg/kg/injection, schedule: Q01DX009 (ip), vehicle: saline with Tween-80.
Where [15] appears, read: dose: 25.0 mg/kg/injection, schedule: Q01DX009 (ip), vehicle: saline.

Each structure is given as a SMILES string. “And” between values parts separate entries of the source, which are not always exact repeats. Equal entries are not always repeated. Inconclusive results and toxic doses are left out.

`C=CCNc1nc2c(s1)CCc1cc(OC)c(OC)cc1-2`: the T/C is 103 % of control under setting [1]; 116 % of control under setting [2]; 107 % of control under setting [3]; 100 % of control under setting [4]; 103 % of control under setting [5]; 103 % of control under setting [6].

Turning to `N#C[Se-].c1ccc([Te+](c2ccccc2)c2ccccc2)cc1`, the T/C (dose: 1.56 mg/kg/injection, schedule: Q01DX009 (ip), vehicle: Klucel (hydroxypropylcellulose) (HPC)) was 92 % of control; the T/C (dose: 3.12 mg/kg/injection, schedule: Q01DX009 (ip), vehicle: Klucel (hydroxypropylcellulose) (HPC)) is 97 % of control; the T/C under setting [7] is 96 % of control; the T/C under setting [8] was 96 % of control.

Turning to `O=NN(CCCl)C(=O)NCCO`, the T/C is 102 % of control (dose: 1.5 mg/kg/injection, schedule: Q01DX009 (ip), vehicle: water); 122 % of control (dose: 1.56 mg/kg/injection, schedule: Q01DX009 (ip), vehicle: water); 104 % of control (dose: 3.0 mg/kg/injection, schedule: Q01DX009 (ip), vehicle: water); 189 % of control (dose: 3.12 mg/kg/injection, schedule: Q01DX009 (ip), vehicle: water); 105 % of control (dose: 6.0 mg/kg/injection, schedule: Q01DX009 (ip), vehicle: water); 201 % of control (dose: 6.25 mg/kg/injection, schedule: Q01DX009 (ip), vehicle: water). The T/C is 109 % of control (dose: 12.0 mg/kg/injection, schedule: Q01DX009 (ip), vehicle: water) and 194 % of control (dose: 12.5 mg/kg/injection, schedule: Q01DX009 (ip), vehicle: water).

Turning to `CC(C)(O)[C@H]1[C@@H]2OC(=O)[C@H]1[C@]1(O)C[C@H]3OC34C(=O)O[C@H]2[C@@]41C` (stereo partly drawn) (tested in a mixture with another compound), the T/C by setting is: (dose: 0.25 mg/kg/injection, schedule: Q01DX009 (ip), vehicle: Klucel (hydroxypropylcellulose) (HPC)) 110 % of control; (dose: 0.5 mg/kg/injection, schedule: Q01DX009 (ip), vehicle: Klucel (hydroxypropylcellulose) (HPC)) 99 % of control; (dose: 1.0 mg/kg/injection, schedule: Q01DX009 (ip), vehicle: Klucel (hydroxypropylcellulose) (HPC)) 108 % of control; (dose: 2.0 mg/kg/injection, schedule: Q01DX009 (ip), vehicle: Klucel (hydroxypropylcellulose) (HPC)) 111 % of control.

In the case of `NC(Cc1ccc(O)c(Cl)c1)C(=O)O` (stereo not drawn), the T/C was 93 % of control (dose: 100.0 mg/kg/injection, schedule: Q01DX009 (ip), vehicle: saline) and 98 % of control under setting [9].

Consider `CO[C@@]12[C@@H]3N[C@@H]3CN1C1=C(C(=O)C(NCc3ccco3)=C(C)C1=O)[C@@H]2COC(N)=O`, for which the T/C was 170 % of control (dose: 4.5 mg/kg/injection, schedule: Q01DX001 (ip), vehicle: distilled water + Tween-80); 186 % of control (dose: 9.0 mg/kg/injection, schedule: Q01DX001 (ip), vehicle: distilled water + Tween-80); 219 % of control (dose: 18.0 mg/kg/injection, schedule: Q01DX001 (ip), vehicle: distilled water + Tween-80); 247 % of control (dose: 36.0 mg/kg/injection, schedule: Q01DX001 (ip), vehicle: distilled water + Tween-80).

As to `CC(C)(C)C1CCCCC1`, the T/C reads like this: under setting [8], 97 % of control; under setting [10], 92 % of control; under setting [11], 88 % of control.

With `O=C(Nc1ccc([N+](=O)[O-])cc1)Nc1nncs1`, the T/C reads like this: (dose: 25.0 mg/kg/injection, schedule: Q01DX009 (ip), vehicle: distilled water + Tween-80) 122 % of control and 103 % of control; (dose: 50.0 mg/kg/injection, schedule: Q01DX009 (ip), vehicle: distilled water + Tween-80) 112 % of control and 113 % of control; (dose: 200.0 mg/kg/injection, schedule: Q01DX009 (ip), vehicle: distilled water + Tween-80) 120 % of control.

For the molecule `CN1CCN(c2ccc([N+](=O)[O-])c3no[n+]([O-])c23)CC1`, the T/C by setting is: under setting [12], 101 % of control; under setting [13], 111 % of control; under setting [14], 95 % of control.

Turning to `CC(=O)[O][Pb]([O]C(C)=O)([c]1ccccc1)[c]1ccccc1`, the T/C is 88 % of control under setting [7], 90 % of control under setting [8], 88 % of control under setting [10] and 93 % of control under setting [11].

Turning to `O=C/C(Cl)=C(/Cl)C(=O)O`, the T/C was 99 % of control (dose: 1.25 mg/kg/injection, schedule: Q01DX009 (ip), vehicle: saline with Tween-80); 86 % of control under setting [12]; 89 % of control under setting [13]; 92 % of control (dose: 10.0 mg/kg/injection, schedule: Q01DX009 (ip), vehicle: saline with Tween-80); 102 % of control under setting [14].

Regarding `COc1cc2cc(c1Cl)N1CC(O)C(C)(O)C(=O)NC(C)C(=O)OC(CC1=O)C1(C)OC1C(C)C1CC(O)(NC(=O)O1)C(OC)/C=C\C=C(\C)C2OC` (stereo not drawn), the T/C was 164 % of control and 165 % of control (dose: 2.0 micrograms/kg/injection, schedule: Q01DX009 (ip), vehicle: distilled water + alcohol); 170 % of control and 185 % of control (dose: 4.0 micrograms/kg/injection, schedule: Q01DX009 (ip), vehicle: distilled water + alcohol); 176 % of control and 195 % of control and 196 % of control (dose: 8.0 micrograms/kg/injection, schedule: Q01DX009 (ip), vehicle: distilled water + alcohol); 183 % of control and 197 % of control and 212 % of control (dose: 16.0 micrograms/kg/injection, schedule: Q01DX009 (ip), vehicle: distilled water + alcohol).

In the case of `Cc1c(N)nc(C(CC(N)=O)NCC(N)C(N)=O)nc1C(=O)NC(C(=O)NC(C)C(O)CC(=O)NC(C(=O)NC(OC1OC(C)C(N)C(O)C1O)C(O)c1nc(-c2nc(C(=O)NCCCC(N)CC(=O)NCCCNCCCCN)cs2)cs1)C(C)O)C(OC1OC(CO)C(O)C(O)C1OC1OC(CO)C(O)C(OC(N)=O)C1O)c1cnc[nH]1` (stereo not drawn), the T/C (dose: 0.5 mg/kg/injection, schedule: Q01DX009 (ip), vehicle: saline) is 120 % of control.

Turning to `Clc1ccc2nnnn2n1`, the T/C is, setting by setting: under setting [1], 95 % of control; under setting [2], 105 % of control; under setting [3], 108 % of control and 116 % of control and 123 % of control; under setting [4], 111 % of control; under setting [5], 167 % of control.

Take `O=C1NC(=O)C2(CCC(C3CCCCC3)CC2)N1` (stereo not drawn): the T/C is 87 % of control under setting [11]; 89 % of control (dose: 100.0 mg/kg/injection, schedule: Q01DX009 (ip), vehicle: Klucel (hydroxypropylcellulose) (HPC)); 89 % of control (dose: 200.0 mg/kg/injection, schedule: Q01DX009 (ip), vehicle: Klucel (hydroxypropylcellulose) (HPC)).

Turning to `COc1cc(NCCCCCCCNC(C)C)c2nccc(C)c2c1`, the T/C runs as follows: (dose: 3.12 mg/kg/injection, schedule: Q01DX009 (ip), vehicle: saline) 103 % of control; (dose: 6.25 mg/kg/injection, schedule: Q01DX009 (ip), vehicle: saline) 96 % of control; (dose: 12.5 mg/kg/injection, schedule: Q01DX009 (ip), vehicle: saline) 103 % of control; under setting [15], 103 % of control.

On to `C=C(NC(=O)C(=C)NC(=O)c1csc(C2=NC3c4csc(n4)C4NC(=O)c5csc(n5)C(C(C)(O)C(C)O)NC(=O)C5CSC(=N5)/C(=C/C)NC(=O)C(C(C)O)NC(=O)c5csc(n5)C3(CC2)NC(=O)C(C)NC(=O)C(=C)NC(=O)C(=C)NC(=O)C(C(C)C)NC2C=Cc3c(C(C)O)cc(nc3C2O)C(=O)OC4C)n1)C(N)=O` (stereo not drawn), for which the T/C is 121 % of control under setting [15]; 109 % of control (dose: 50.0 mg/kg/injection, schedule: Q01DX009 (ip), vehicle: saline); 121 % of control under setting [9].

On to `C/C(=N\O)C(O)c1ccccc1` (stereo not drawn), for which the T/C is 98 % of control under setting [4], 107 % of control under setting [5] and 92 % of control under setting [6].

With `CC1CCC2C(C)C(=O)OC2C2(C)C(=O)C=CC12` (stereo not drawn), the T/C is 95 % of control (dose: 14.0 mg/kg/injection, schedule: Q01DX009 (ip), vehicle: Klucel (hydroxypropylcellulose) (HPC)); 95 % of control (dose: 22.0 mg/kg/injection, schedule: Q01DX009 (ip), vehicle: Klucel (hydroxypropylcellulose) (HPC)); 97 % of control (dose: 35.0 mg/kg/injection, schedule: Q01DX009 (ip), vehicle: Klucel (hydroxypropylcellulose) (HPC)); 97 % of control under setting [11].
